Tests used:
Dipeptidyl peptidase 1 = Dipeptidyl peptidase 1 (Homo sapiens, UniProt P53634); assay: Inhibition of Cathepsin C (unknown origin)
Cathepsin K = target: T1, Cathepsin K (Homo sapiens, UniProt P43235); assay: Inhibition of Cathepsin K (unknown origin)
T1 sequence (P43235 whole entry): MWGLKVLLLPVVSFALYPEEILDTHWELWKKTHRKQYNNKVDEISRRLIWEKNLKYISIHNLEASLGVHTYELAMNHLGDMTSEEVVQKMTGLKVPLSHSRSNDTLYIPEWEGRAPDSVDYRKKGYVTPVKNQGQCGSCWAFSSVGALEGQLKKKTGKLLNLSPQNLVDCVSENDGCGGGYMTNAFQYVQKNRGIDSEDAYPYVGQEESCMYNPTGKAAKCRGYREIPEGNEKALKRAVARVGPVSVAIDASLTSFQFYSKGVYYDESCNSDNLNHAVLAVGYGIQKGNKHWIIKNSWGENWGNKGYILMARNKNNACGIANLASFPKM

Procathepsin L = Procathepsin L (Homo sapiens, UniProt P07711); assay: Inhibition of Cathepsin L (unknown origin)
Cathepsin S = Cathepsin S (Homo sapiens, UniProt P25774); assay: Inhibition of Cathepsin S (unknown origin)
Chain of Cathepsin S (P25774 whole entry): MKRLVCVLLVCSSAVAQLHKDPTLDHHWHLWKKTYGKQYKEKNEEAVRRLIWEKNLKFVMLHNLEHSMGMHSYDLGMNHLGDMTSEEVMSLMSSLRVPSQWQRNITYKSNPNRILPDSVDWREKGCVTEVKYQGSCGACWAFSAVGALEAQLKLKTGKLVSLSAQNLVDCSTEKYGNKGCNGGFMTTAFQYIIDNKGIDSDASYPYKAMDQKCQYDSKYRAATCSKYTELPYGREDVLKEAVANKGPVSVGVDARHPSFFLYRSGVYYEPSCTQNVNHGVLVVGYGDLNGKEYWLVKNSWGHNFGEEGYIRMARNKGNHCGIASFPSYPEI

Chain of Procathepsin L (P07711 whole entry): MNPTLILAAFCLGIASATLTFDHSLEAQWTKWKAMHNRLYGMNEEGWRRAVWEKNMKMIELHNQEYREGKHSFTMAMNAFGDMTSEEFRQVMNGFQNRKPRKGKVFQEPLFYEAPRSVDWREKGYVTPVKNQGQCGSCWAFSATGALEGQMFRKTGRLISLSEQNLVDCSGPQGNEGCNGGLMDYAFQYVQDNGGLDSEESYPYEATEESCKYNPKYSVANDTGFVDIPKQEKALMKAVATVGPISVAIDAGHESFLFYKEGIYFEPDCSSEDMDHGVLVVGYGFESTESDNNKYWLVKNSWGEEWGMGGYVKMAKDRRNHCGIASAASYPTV
Chain of Dipeptidyl peptidase 1 (P53634 25-134 limits assumed): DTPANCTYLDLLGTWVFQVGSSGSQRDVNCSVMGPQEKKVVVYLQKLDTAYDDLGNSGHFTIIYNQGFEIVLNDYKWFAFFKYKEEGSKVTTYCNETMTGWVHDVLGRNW
Chain of Dipeptidyl peptidase 1 (P53634 231-394 limits assumed): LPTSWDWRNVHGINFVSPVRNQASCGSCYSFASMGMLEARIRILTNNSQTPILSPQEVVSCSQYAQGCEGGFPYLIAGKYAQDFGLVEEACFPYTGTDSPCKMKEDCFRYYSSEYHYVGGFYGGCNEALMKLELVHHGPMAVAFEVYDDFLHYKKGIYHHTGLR
Chain of Dipeptidyl peptidase 1 (P53634 395-463 limits assumed): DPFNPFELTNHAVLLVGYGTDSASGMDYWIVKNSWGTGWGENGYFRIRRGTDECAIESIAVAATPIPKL

SMILES | IC50 (Cathepsin K) | IC50 (Procathepsin L) | IC50 (Cathepsin S) | pIC50 (Dipeptidyl peptidase 1) | IC50 (Dipeptidyl peptidase 1)
O=C(OC[C@H]1O[C@H](OC(=O)c2cc(O)c(O)c(O)c2)[C@H](OC(=O)c2cc(O)c(O)c(O)c2)[C@@H](OC(=O)c2cc(O)c(O)c(O)c2)[C@H]1OC(=O)c1cc(O)c(O)c(O)c1)c1cc(O)c(O)c(O)c1 |  |  |  |  | 2520 nM
O=C(OC[C@H]1O[C@@H](OC(=O)c2cc(O)c(O)c(O)c2)[C@H](OC(=O)c2cc(O)c(O)c(O)c2)[C@@H](OC(=O)c2cc(O)c(O)c(O)c2)[C@H]1OC(=O)c1cc(O)c(O)c(O)c1)c1cc(O)c(O)c(O)c1 |  |  |  |  | 735 nM
O=C(OC[C@H]1O[C@@H](OC(=O)c2cc(O)c(O)c(O)c2)[C@H](OC(=O)c2cc(O)c(O)c(O)c2)[C@@H](OC(=O)c2cc(O)c(O)c(O)c2)[C@@H]1OC(=O)c1cc(O)c(O)c(O)c1)c1cc(O)c(O)c(O)c1 [PENTAGALLOYL GLUCOSE] |  |  |  |  | 695 nM
O=C(OC[C@H]1O[C@H](OC(=O)c2cc(O)c(O)c(O)c2)[C@H](OC(=O)c2cc(O)c(O)c(O)c2)[C@@H](OC(=O)c2cc(O)c(O)c(O)c2)[C@@H]1OC(=O)c1cc(O)c(O)c(O)c1)c1cc(O)c(O)c(O)c1 |  |  |  |  | 1990 nM

Now from value to molecule, other results behind:

IC50 (Cathepsin K) | IC50 (Procathepsin L) | IC50 (Cathepsin S) | pIC50 (Dipeptidyl peptidase 1) | SMILES | IC50 (Dipeptidyl peptidase 1)
> 50000 nM | 7230 nM | > 50000 nM |  | O=C(OC[C@H]1O[C@@H](OC(=O)c2cc(O)c(O)c(O)c2)[C@H](OC(=O)c2cc(O)c(O)c(O)c2)[C@@H](OC(=O)c2cc(O)c(O)c(O)c2)[C@@H]1F)c1cc(O)c(O)c(O)c1 | 
 |  |  | < 5 | O=C(N[C@H]1[C@@H](OC(=O)c2cc(O)c(O)c(O)c2)O[C@H](COC(=O)c2cc(O)c(O)c(O)c2)[C@@H](O)[C@@H]1OC(=O)c1cc(O)c(O)c(O)c1)c1cc(O)c(O)c(O)c1 | > 10000 nM
 |  |  | < 5 | COc1cc(C(=O)O[C@@H]2O[C@H](CO)[C@@H](O)[C@H](OC(=O)c3cc(OC)c(OC)c(OC)c3)[C@H]2OC(=O)c2cc(OC)c(OC)c(OC)c2)cc(OC)c1OC | > 10000 nM
1.17 nM | 7.49 nM | 3.58 nM |  | CC(C)C[C@H](NC(=O)[C@H]1O[C@@H]1C(=O)O)C(=O)NCCCCN=C(N)N [E-64] | 4450 nM
> 50000 nM | > 50000 nM | > 50000 nM |  | O=C(OC[C@H]1O[C@@H](OC(=O)c2cc(O)c(O)c(O)c2)[C@H](OC(=O)c2cc(O)c(O)c(O)c2)[C@@H](OC(=O)c2cc(O)c(O)c(O)c2)[C@@H]1O)c1cc(O)c(O)c(O)c1 | 
